Assay results published in BindingDB's records for doi:10.1016/j.chembiol.2010.06.007 (Stanford School of Medicine, 2010).

Target: Dipeptidyl aminopeptidase 1 (Plasmodium falciparum)
Assay: DPAP1 inhibtion was measured using DPAP1-specific fluorogenic assay. IC50 DPAP1 were determined after 30 min incubation of parasite lysates with 5 nM to 100 mM inhibitor. ki values were obtained by fitting the data to Equation 1.

| IC50 [nM] | SMILES |
| --- | --- |
| > 20000 | CCCCC(C(=O)COc1c(F)c(F)cc(F)c1F)n1cc([C@](C)(N)C2CCCCC2)nn1 (some centres not stated) [ML4046B] |
| > 100000 | CCCCC(C(=O)COc1c(F)c(F)cc(F)c1F)n1cc(C(C)(N)Cc2ccccc2)nn1 (configuration not stated) [ML4053] |
| 1100 | CCCCC(C(=O)COc1c(F)c(F)cc(F)c1F)n1cc(C(C)(C)N)nn1 (configuration not stated) [ML4066] |
| 74000 | CCCCC(C(=O)COc1c(F)c(F)cc(F)c1F)n1cc(C(N)Cc2ccccc2)nn1 (configuration not stated) [ML4068] |
| 410 | CCCCC(C(=O)COc1c(F)c(F)cc(F)c1F)n1cc(C(N)(CC)CC)nn1 (configuration not stated) [ML4161] |
| > 20000 | CCCCC(C(=O)COc1c(F)c(F)cc(F)c1F)n1cc(C2(N)CCNCC2)nn1 (configuration not stated) [ML4162] |
| > 20000 | CCCCC(C(=O)COc1c(F)c(F)cc(F)c1F)n1cc(C2(N)CCN(C(C)=O)CC2)nn1 (configuration not stated) [ML4163] |
| 420 | CCCCC(C(=O)COc1c(F)c(F)cc(F)c1F)n1cc(C2(C)CCCN2)nn1 (configuration not stated) [ML6076] |

The remaining lines, values behind:

| SMILES | IC50 [nM] |
| --- | --- |
| CCCCC(C(=O)COc1c(F)c(F)cc(F)c1F)n1cc(C2(N)CCCCC2)nn1 (configuration not stated) [HN3019] | 560 |
| CCCCC(C(=O)COc1c(F)c(F)cc(F)c1F)n1cc([C@@](C)(N)C2CCCCC2)nn1 (some centres not stated) [ML4046A] | 700 |
| CCCCC(C(=O)COc1c(F)c(F)cc(F)c1F)n1cc(C(C)N)nn1 (configuration not stated) [ML4057] | 700 |
| CCCCC(C(=O)COC(=O)c1c(C)cccc1C)n1cc(C2(N)CCCCC2)nn1 (configuration not stated) [ML4091] | 11000 |
| CCCCC(C#N)n1cc(C2(N)CCCCC2)nn1 (configuration not stated) [ML4101] | > 100000 |
| CCCCC(C(=O)COc1c(F)c(F)cc(F)c1F)n1cc(C(C)(N)CCC)nn1 (configuration not stated) [ML4123] | 410 |
| CCCCC(C(=O)COc1c(F)c(F)cc(F)c1F)n1cc(C(N)(CCC)CCC)nn1 (configuration not stated) [ML4124] | 700 |
| CCCCC(C(=O)COc1c(F)c(F)cc(F)c1F)n1cc(C2(N)CCN(C(N)=O)CC2)nn1 (configuration not stated) [ML4154] | > 20000 |
| CCCCC(C(=O)COc1c(F)c(F)cc(F)c1F)n1cc(C(CCC)(CCC)NC)nn1 (configuration not stated) [ML5004] | 7700 |
